Assay results published in US11513122B2, “Predicting response to PD-1 axis inhibitors” (Hoffmann-La Roche Inc., priority 2016, dated 2022).

How the values were obtained:
[1] = test system: patients with non-small cell lung cancer (NSCLC); assay: Phase II clinical trial POPLAR (NCT01903993), overall survival by DC gene expression; format: in vivo, human
From the text: Further to Example 3, we analyzed 193 patients with non-small cell lung cancer (NSCLC) previously treated, then received atezolizumab or docetaxel in a Phase II clinical trial POPLAR. This study is registered with ClinicalTrials.gov, number NCT01903993. POPLAR is a multicentre, randomised, open-label phase II trial, done at 61 academic medical centers and community oncology practices across 13 countries in Europe and North America. The study was done in full accordance with the guidelines for Good Clinical Practice and the Declaration of Helsinki. Protocol (and modification) approval was obtained from an independent ethics committee for each site (Fehrenbacher L, et. Al., Lancet 2016). Among those patients with squamous or non-squamous NSCLC, 96 received Docetaxel, and 92 received atezolizumab, and the rest of 5 left untreated (Table 1).
Tumor specimens at baseline were archived and taken for gene expression profiling performed by RNA Sequencing (RNA-Seq). Based on literature (Merad M. et al, Ann. Rev. Immunol. 2013), we selected a list of genes consisting of XCR1, IRF8, BATF3, and FLT3, which are associated with human dendritic cell phenotypes and development with cross-presenting specialization. Normalized read counts of each selected gene across the whole cohort were divided at medium expression level for the higher expression ones (+) and lower/no expression ones (−). Using in-house R scripts the two defined subgroups were plotted against the Kaplan-Meier survival curves. In addition, Cox-regression analysis was used to calculate the hazard ratio (HR) between the two patient groups divided based on positive and negative gene expression.
We also investigated the impact of multiple genes involved in human DC development and function (XCR1, BATF3, FLT3, and IRF8) by defining a cumulative DC gene score (DC score) reflecting the cumulative expression of these marker genes. Each gene's expression is first standardized by a z-score:
where μ and σ are estimated in the entire cohort or in the selected subgroups. After the standardization step, these standardized z-score values are averaged across genes within each patient. The cohort was corrected for the smoking status, ECOG and sex of patient. Then the score was plotted against the Kaplan-Meier survival curves.

[2] = test system: patients with renal cell carcinoma; assay: Phase I clinical trial (NCT01375842), response and survival by DC gene expression; format: in vivo, human
From the text: We hypothesized that patients with DC abundance may respond to PD-L1 blockade leading to beneficial effect in patients who received the treatment. We analyzed 56 patients with renal cell carcinoma who received Atezolizumab in a Phase I clinical trial (NCT01375842) (www.clinicaltrials.gov). This study was sponsored by Genentech Inc., a member of the Roche Group, which provided the study drug. The protocol and its amendments were approved by the relevant institutional review boards or ethics committees, and all participants provided written informed consent. This study was conducted in accordance with the Declaration of Helsinki and International Conference on Harmonization Guidelines for Good Clinical Practice. In total, 56 patients were analyzed. Based on the “Best Confirmed Overall Response by the Investigator” we observed 6 responders (CR=1; PR=5) and 47 non-responder (PD=21; SD=26) as well as 3 patients without known information (FIG. 7).
Tumor specimens at baseline were archived and taken for gene expression profiling performed by RNA Sequencing (RNA-Seq). Based on literature (Merad, ann rev immunol 2013), we selected a list of genes consisting of XCR1, IRF8, BATF3 and FLT3, which are associated with human dendritic cell development with cross-presenting specialization. The log 2 RPKM expression values of each selected gene across the whole cohort were divided at medium expression level for the higher expression ones (+) and lower/no expression ones (−). Using in-house R scripts the two defined subgroups were plotted against the Kaplan-Meier survival curves. […] The medium survival between patients with higher expression versus lower/no expression were separated for at least 15.6 months or longer (FIG. 9).
As several genes linked to human dendritic cell development were associated with the survival advantages, we investigated the impact of multiple genes involved in human DC development and function by defining a cumulative DC gene score (DC score) reflecting the cumulative expression of these marker genes. Each gene's expression is first standardized by a z-score: z=(x−μ)/σ,
where μ and σ are estimated in the entire cohort or in the selected subgroups. After the standardization step, these standardized z-score values are averaged across genes within each patient. The RCC cohort was corrected for the sex of patient as well as the Stage at Initial Diagnosis.

[3] = test system: MC38 cells (colorectal cancer cell lines); assay: MC38 tumor model in CD11c-DTR mice with or without DC depletion by DT; format: in vivo; settings: MC38 s.c.; DT 100 ng at day 6; anti-PD-L1 Ab 10 mg/kg from day 7, weekly; FIG. 6B
Method: To further study the contribution of DCs by PD-L1 blockade in mediating anti-tumor immunity, we obtained the CD11c-DTR mice from the Jackson laboratory (B6.FVB-Tg(Itgax-DTR/EGFP)57Lan/J, Cat. No. 004509). […]. When tumor is palpable at day 6, mice were treated with 100 ng of DT (Sigma-Aldrich) or left untreated. At day 7, a anti-PD-L1 Ab (10 mg/kg, murine IgG1, clone 6E11, Genentech) was given to mice, followed by weekly injection (FIG. 6A). […] Our data support the concept that DCs are needed for PD-L1 Ab to achieve its maximum anti-tumor efficacy.

[4] = test system: human DCs; assay: Maturation of monocyte-derived DCs by LPS, PD-1/PD-L1 staining by flow cytometry; format: cell-based; settings: LPS 10 ng/mL, FIGS. 2A-2B
Method: To address the potential regulation of PD-1 and its ligands on human DCs, monocyte-derived DCs were generated using the classical method. Briefly, Peripheral Blood Mononuclear Cells (PBMCs) were isolated from buffy-coats (Blutspende, Schlieren) from healthy human donors, using Ficoll-Paque™ Plus (GE Healthcare, #17-1440-03) density gradient. Rings of PBMCs were collected and washed with PBS two times by centrifugation (5′ at 763 g; 5′ at 600 g). A lysis was conducted using 10 mL of BD Pharm Lyse™ (BD Biosciences, #555899) diluted at 1× with sterile water and incubated 1,5 minute at room temperature. Two washes with Phosphate-buffered saline 1× (PBS; Gibco® by live technologies™, #20012-019) were conducted by centrifugation (8′ at 135 g). Cells number and quality were evaluated using Cell counter (Beckman Coulter®). Separate unrelated donors were used for each independent experiment. Monocytes were isolated from fresh PBMCs by negative selection using Human monocyte enrichment kit (StemCell, #19059) in MACs buffer (1450 mL Automacs™ Rinsing solution, Miltenyi #130-091-222; and 75 mL MACS BSA stock Solution, Miltenyi #130-091-376) according to the manufacturer's instructions. […] The cells were then stained with anti-PD-1-PE-Cy7 and anti-PD-L1-APC Abs (BioLegend®; #329917, #329707), and measured by flow cytometry (BD). […]

[5] = NSCLC, XCR1 divided at medium expression level

CC(=O)O[C@@]12CO[C@@H]1C[C@H](O)[C@@]1(C)C(=O)[C@H](O)C3=C(C)[C@@H](OC(=O)[C@H](O)[C@@H](NC(=O)OC(C)(C)C)c4ccccc4)C[C@@](O)([C@@H](OC(=O)c4ccccc4)[C@H]21)C3(C)C [docetaxel]
correlation of XCR1 expression to survival ([1]; NSCLC): no correlation
correlation of DC genes expression to survival ([1]; PD-L1+ patients): no correlation

atezolizumab
CR ([2]; 56 patients analyzed): 1
PD ([2]; 56 patients analyzed): 21
PR ([2]; 56 patients analyzed): 5
non-responder ([2]; 56 patients analyzed): 47
responders (Best Confirmed Overall Response by the Investigator) ([2]; 56 patients analyzed, FIG. 7): 6
HR, higher versus lower DC score ([2]; RCC, p=0.03, FIG. 10): 0.38
medium survival, patients with higher DC score ([2]; cumulative DC gene score (XCR1, IRF8, BATF3, FLT3), FIG. 10): without reaching medium survival
separation of medium survival between patients with higher expression versus lower/no expression ([2]; single genes XCR1, IRF8, BATF3, FLT3, FIG. 9): at least 15.6 months
separation of medium OS, higher versus lower/no XCR1 expression ([1]; NSCLC): ~7 months
medium overall survival (mOS), patients with higher XCR1 expression [1, 5]: 15.5 month
medium overall survival (mOS), patients with lower/no XCR1 expression [1, 5]: 8.6 month
medium OS, patients with higher DC signature score ([1]; NSCLC, all patients): 16.4 months
medium OS, patients with lower/no DC signature expression ([1]; NSCLC, all patients): 8.5 months
separation of medium OS, higher versus lower/no DC signature expression ([1]; NSCLC, all patients): 7.9 months
HR, higher versus lower DC signature score ([1]; NSCLC, all patients, p=0.04, FIG. 11): 0.54
hazard ratio (HR) by Cox-regression analysis, higher versus lower/no XCR1 expression ([1]; NSCLC, p=0.077): 0.6
median OS, patients with lower/no expression ([1]; PD-L1+ patients): 8.4 months
medium OS, patients with higher DC gene score ([1]; PD-L1+ patients): not reached
HR, higher versus lower DC signature score ([1]; PD-L1+ patients (TC3, TC2, IC3, IC2), p=0.03, FIG. 12): 0.25

diphtheria toxin [DT]
tumor growth [3]: did not impact the tumor growth

lipopolysaccharide [LPS]
PD-1 expression on DCs upon maturation [4]: downregulated
PD-L1 expression on DCs upon maturation [4]: upregulated
